Data reported in patent US12448383B2, “Compounds and methods for treatment of viral infections” (priority 2022, dated 2025).
Where two headings read alike, the source gives them in different places.

Experiments:
[1] = test system: SARS Coronavirus 2 recombinant with NanoLuc (SARS-CoV2-NLuc) in A549-hACE2 cells; assay: microbe, parasite or virus in culture; assay type: cell-based
[2] = test system: Respiratory syncytial virus recombinant with luciferase (RSV-Luc5) in Normal Human Bronchial Epithelial (NHBE) cells; assay: microbe, parasite or virus in culture; assay type: cell-based
[3] = CC50 MT4 cytotoxicity (Cell-Titer Glo); assay type: cell-based; settings: human
In short: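 Uninfected MT-4 and HEp-2 cells cultured 4-5 days at 37° C with 3-fold serially diluted compound (15 nM to 100,000 nM). Viability read by Cell-Titer Glo luminescence; untreated and 2 μM puromycin wells set 100% and 0%. CC50 from non-linear regression as concentration reducing viability by 50%.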

[4] = test system: Caco-2 cells (clone C2BBe1); assay: CACO-2 permeability; assay type: in vitro ADME; set-up: unit not given here; settings: for DM Caco2 A to B: apical to basolateral, donor pH 6.5, receiver pH 7.4; for DM Caco2 B to A: basolateral to apical
In short: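 Caco-2 monolayers grown 21 days on collagen-coated transwells and checked for integrity by TEER. Donor buffer was HBSS/HEPES/glucose pH 6.5 with 200 μM BNPP; receiver was pH 7.4 with BSA. Compounds were dosed apically or basolaterally for A-to-B and B-to-A transport, with receiver sampling at 1 and 2 h, LC-MS/MS analysis and percent recovery.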

[5] = Thermodynamic solubility in pH7 buffered solution; settings: 50 mM phosphate buffer pH7, 150 mM NaCl, ambient temperature, 24 hours
In short: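 Solid shaken 24 h at ambient temperature in 50 mM phosphate buffer pH7 with 150 mM NaCl. Supernatant diluted in 30:70 acetonitrile:water and quantified by UPLC-UV.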

[6] = Stability in pH2 buffered solution; assay type: physicochemical; settings: pH2 phosphate buffer, 40° C.; for pH 2 Stability 24 h % AN: Table N2
In short: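 Compounds diluted from 1 mg/mL acetonitrile stock to 50 μg/mL in 50 mM phosphate buffer with 150 mM NaCl at pH2 or pH7, held at 40° C. for 24 hrs. UPLC sampling at 0, 3, 6, 9, 12 hrs, plus 24 hrs from oven-stored duplicate; reported as % area normalized of compound peak.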

CC(C)OC(=O)Nc1ncnn2c([C@]3(C#N)O[C@H](COC(=O)OC(C)C)[C@@H](O)[C@H]3O)ccc12 [Compound 137, isopropyl (7-((2R,3R,4S,5R)-2-cyano-3,4-dihydroxy-5-(((isopropoxycarbonyl)oxy)methyl)tetrahydrofuran-2-yl)pyrrolo[2, i-f][1,2,4]triazin-4-yl)carbamate]
EC50 ([1]; A549, read-out: EC50 SARS CoV2 NanoLuc A549 384): > 50 µM
EC50 ([2]; read-out: EC50 RSVFluc-NHBE 384 V2): 9.52 µM
CC50 [3]: > 50 µM
DM Caco2 A to B [4]: 0.98
DM Caco2 B to A [4]: 11.37
Sol pH 7 [5]: 0.13
pH 2 Stability 24 h % AN [6]: 80 % AN

COC(=O)OC[C@H]1O[C@@](C#N)(c2ccc3c(N)ncnn23)[C@H](OC(C)=O)[C@@H]1OC(C)=O [Compound 128, (2R,3R,4R,5R)-2-(4-aminopyrrolo[2,1-f][1,2,4]triazin-7-yl)-2-cyano-5-(((methoxycarbonyl)oxy)methyl)tetrahydrofuran-3,4-diyl diacetate]
EC50 ([1]; 48 h, read-out: SARS-CoV2 EC50): 7.23 µM
EC50 ([2]; 72 h, read-out: RSV NHBE EC50): 2.04 µM
CC50 [3]: > 50 µM
DM Caco2 A to B [4]: 3.35
DM Caco2 B to A [4]: 5.69
Sol pH 7 [5]: 1.42
Stability at pH2, 0 hr [6]: 100.0 % AN
Stability at pH2, 3 hr [6]: 98.3 % AN
Stability at pH2, 6 hr [6]: 96.7 % AN
Stability at pH2, 9 hr [6]: 95.2 % AN
Stability at pH2, 12 hr [6]: 93.8 % AN
pH 2 Stability 24 h % AN [6]: 89 % AN
Stability at pH2, 24 hr [6]: 89.3 % AN

CC(C)(C)OC(=O)OC[C@H]1O[C@@](C#N)(c2ccc3c(N)ncnn23)[C@H](O)[C@@H]1O [Compound 46, ((2R,3S,4R,5R)-5-(4-aminopyrrolo[2,1-f][1,2,4]triazin-7-yl)-5-cyano-3,4-dihydroxytetrahydrofuran-2-yl)methyl tert-butyl carbonate]
EC50 ([1]; 48 h, read-out: SARS-CoV2 EC50): 4.3 µM
EC50 ([2]; 72 h, read-out: RSV NHBE EC50): 1.18 µM
CC50 [3]: > 50 µM
DM Caco2 A to B [4]: 0.76
DM Caco2 B to A [4]: 10.66
Sol pH 7 [5]: 0.45
pH 2 Stability 24 h % AN [6]: 4 % AN

CC(C)C(=O)O[C@H]1[C@@H](OC(=O)C(C)C)[C@](C#N)(c2ccc3c(N)ncnn23)O[C@@H]1COC(=O)OC(C)(C)C [Compound 58, (2R,3R,4R,5R)-2-(4-aminopyrrolo[2,1-f][1,2,4]triazin-7-yl)-5-(((tert-butoxycarbonyl)oxy)methyl)-2-cyanotetrahydrofuran-3,4-diyl bis(2-methylpropanoate)]
EC50 ([1]; 48 h, read-out: SARS-CoV2 EC50): 2.24 µM
EC50 ([2]; 72 h, read-out: RSV NHBE EC50): 1.07 µM
CC50 [3]: 27.1 µM
DM Caco2 A to B [4]: 5.67
DM Caco2 B to A [4]: 6.86
Sol pH 7 [5]: 0.02
pH 2 Stability 24 h % AN [6]: 2 % AN

CCOC(=O)OC[C@H]1O[C@@](C#N)(c2ccc3c(N)ncnn23)[C@H](O)[C@@H]1O [Compound 6, ((2R,3S,4R,5R)-5-(4-aminopyrrolo[2,1-f][1,2,4]triazin-7-yl)-5-cyano-3,4-dihydroxytetrahydrofuran-2-yl)methyl ethyl carbonate]
EC50 ([1]; 48 h, read-out: SARS-CoV2 EC50): 4.42 µM
EC50 ([2]; 72 h, read-out: RSV NHBE EC50): 1.01 µM
CC50 [3]: > 50 µM
DM Caco2 A to B [4]: 0.21
DM Caco2 B to A [4]: 2.77
Sol pH 7 [5]: 3.02
pH 2 Stability 24 h % AN [6]: 100 % AN

CC(C)OC(=O)OC[C@H]1O[C@@](C#N)(c2ccc3c(N)ncnn23)[C@H](OC(=O)C(C)C)[C@@H]1OC(=O)C(C)C [Compound 59, (2R,3R,4R,5R)-2-(4-aminopyrrolo[2,1-f][1,2,4]triazin-7-yl)-2-cyano-5-(((isopropoxycarbonyl)oxy)methyl)tetrahydrofuran-3,4-diyl bis(2-methylpropanoate)]
EC50 ([1]; 48 h, read-out: SARS-CoV2 EC50): 4.16 µM
EC50 ([2]; 72 h, read-out: RSV NHBE EC50): 0.811 µM
CC50 [3]: > 50 µM
DM Caco2 A to B [4]: 11.61
DM Caco2 B to A [4]: 17.7
Sol pH 7 [5]: 0.01
Stability at pH2, 0 hr [6]: 100.0 % AN
Stability at pH2, 3 hr [6]: 100.0 % AN
Stability at pH2, 6 hr [6]: 100.0 % AN
Stability at pH2, 9 hr [6]: 100.0 % AN
Stability at pH2, 12 hr [6]: 98.9 % AN
pH 2 Stability 24 h % AN [6]: 98 % AN
Stability at pH2, 24 hr [6]: 97.9 % AN

CC(C)(OC(=O)OC[C@H]1O[C@@](C#N)(c2ccc3c(N)ncnn23)[C@H](O)[C@@H]1O)c1ccncc1 [Compound 49, ((2R,3S,4R,5R)-5-(4-aminopyrrolo[2,1-f][1,2,4]triazin-7-yl)-5-cyano-3,4-dihydroxytetrahydrofuran-2-yl)methyl (2-(pyridin-4-yl)propan-2-yl) carbonate]
EC50 ([1]; 48 h, read-out: SARS-CoV2 EC50): 14.3 µM
EC50 ([2]; 72 h, read-out: RSV NHBE EC50): 17.7 µM
CC50 [3]: > 50 µM
DM Caco2 A to B [4]: 0.13
DM Caco2 B to A [4]: 3.48
Sol pH 7 [5]: 2.03
pH 2 Stability 24 h % AN [6]: 97 % AN

CC(C)OC(=O)OC[C@H]1O[C@@](C#N)(c2ccc3c(N)ncnn23)[C@H](O)[C@@H]1O [Compound 4, [(2R,3S,4R,5R)-5-(4-aminopyrrolo[2,1-f][1,2,4]triazin-7-yl)-5-cyano-3,4-dihydroay-tetrahydrofuran-2-yl]methyl isopropyl carbonate]
EC50 ([1]; 48 h, read-out: SARS-CoV2 EC50): 2.67 µM
EC50 ([2]; 72 h, read-out: RSV NHBE EC50): 0.774 µM
CC50 [3]: > 50 µM
DM Caco2 A to B [4]: 0.545
DM Caco2 B to A [4]: 5.29
Sol pH 7 [5]: 1.85
Stability at pH2, 0 hr [6]: 98.5 % AN
Stability at pH2, 3 hr [6]: 98.3 % AN
Stability at pH2, 6 hr [6]: 98.5 % AN
Stability at pH2, 9 hr [6]: 98.4 % AN
Stability at pH2, 12 hr [6]: 98.5 % AN
pH 2 Stability 24 h % AN [6]: 98 % AN
Stability at pH2, 24 hr [6]: 98.3 % AN

CC1(OC(=O)OC[C@H]2O[C@@](C#N)(c3ccc4c(N)ncnn34)[C@H](O)[C@@H]2O)CCCCC1 [Compound 47, ((2R,3S,4R,5R)-5-(4-aminopyrrolo[2,1-f][1,2,4]triazin-7-yl)-5-cyano-3,4-dihydroxytetrahydrofuran-2-yl)methyl (1-methylcyclohexyl) carbonate]
EC50 ([1]; 48 h, read-out: SARS-CoV2 EC50): 3.36 µM
EC50 ([2]; 72 h, read-out: RSV NHBE EC50): 1.48 µM
CC50 [3]: > 50 µM
DM Caco2 A to B [4]: 1.68
DM Caco2 B to A [4]: 11.38
Sol pH 7 [5]: 0.1
pH 2 Stability 24 h % AN [6]: 1 % AN

CCOC(=O)OC[C@H]1O[C@@](C#N)(c2ccc3c(N)ncnn23)[C@H](OC(C)=O)[C@@H]1OC(C)=O [Compound 129, (2R,3R,4R,5R)-2-(4-aminopyrrolo[2,1-f][1,2,4]triazin-7-yl)-2-cyano-5-(((ethoxycarbonyl)oxy)methyl)tetrahydrofuran-3,4-diyl diacetate]
EC50 ([1]; 48 h, read-out: SARS-CoV2 EC50): 5.83 µM
EC50 ([2]; 72 h, read-out: RSV NHBE EC50): 0.673 µM
CC50 [3]: > 50 µM
DM Caco2 A to B [4]: 3.505
DM Caco2 B to A [4]: 6.635
Sol pH 7 [5]: 0.72
Stability at pH2, 0 hr [6]: 100.0 % AN
Stability at pH2, 3 hr [6]: 98.4 % AN
Stability at pH2, 6 hr [6]: 96.9 % AN
Stability at pH2, 9 hr [6]: 95.5 % AN
Stability at pH2, 12 hr [6]: 94.0 % AN
pH 2 Stability 24 h % AN [6]: 89 % AN
Stability at pH2, 24 hr [6]: 89.4 % AN

CC(=O)O[C@H]1[C@@H](OC(C)=O)[C@](C#N)(c2ccc3c(N)ncnn23)O[C@@H]1COC(=O)OC(C)C [Compound 65, (2R,3R,4R,5R)-2-(4-aminopyrrolo[2,1-f][1,2,4]triazin-7-yl)-2-cyano-5-(((isopropoxycarbonyl)oxy)methyl)tetrahydrofuran-3,4-diyl diacetate]
EC50 ([1]; 48 h, read-out: SARS-CoV2 EC50): 3.64 µM
EC50 ([2]; 72 h, read-out: RSV NHBE EC50): 0.185 µM
CC50 [3]: > 50 µM
DM Caco2 A to B [4]: 3.07
DM Caco2 B to A [4]: 7.23
Sol pH 7 [5]: 0.045
pH 2 Stability 24 h % AN [6]: 90 % AN

CC12CCC(C1)C(C)(C)C2OC(=O)OC[C@H]1O[C@@](C#N)(c2ccc3c(N)ncnn23)[C@H](O)[C@@H]1O (mixture of isomers) [Compound 48, ((2R,3S,4R,5R)-5-(4-aminopyrrolo[2,1-f][1,2,4]triazin-7-yl)-5-cyano-3,4-dihydroxytetrahydrofuran-2-yl)methyl (1,3,3-trimethylbicyclo[2.2.1]heptan-2-yl) carbonate]
EC50 ([1]; 48 h, read-out: SARS-CoV2 EC50): 14.2 µM
EC50 ([2]; 72 h, read-out: RSV NHBE EC50): 0.167 µM
CC50 [3]: 25.5 µM
DM Caco2 A to B [4]: 6.19
DM Caco2 B to A [4]: 12.52
Sol pH 7 [5]: 0.19
pH 2 Stability 24 h % AN [6]: 100 % AN

CC1(C)[C@@H]2CC[C@@]1(C)[C@@H](OC(=O)OC[C@H]1O[C@@](C#N)(c3ccc4c(N)ncnn34)[C@H](O)[C@@H]1O)C2 [Compound 51, ((2R,3S,4R,5R)-5-(4-aminopyrrolo[2,1-f][1,2,4]triazin-7-yl)-5-cyano-3,4-dihydroxytetrahydrofuran-2-yl)methyl ((1R,2S,4R)-1,7,7-trimethylbicyclo[2.2.1]heptan-2-yl) carbonate]
EC50 ([1]; 48 h, read-out: SARS-CoV2 EC50): 7.83 µM
EC50 ([2]; 72 h, read-out: RSV NHBE EC50): 0.727 µM
CC50 [3]: 38.3 µM
DM Caco2 A to B [4]: 4.35
DM Caco2 B to A [4]: 17.19
Sol pH 7 [5]: 0.08
pH 2 Stability 24 h % AN [6]: 98 % AN
